Data: patent publication US6417174B1, “Inhibitors of β-lactamases and uses therefor” (Northwestern University, priority 1997, dated 2002)
Where two headings read alike, the source gives them in different places.

Assays:
[1] = molecular target: AmpC β-lactamase from E. coli (Escherichia coli, UniProt P00811); assay: biochemical; format: biochemical
[2] = molecular target: T1, TEM-1 β-lactamase from E. coli (Escherichia coli, UniProt P62593); assay: Inhibition of TEM-1 β-lactamase, spectrophotometric assay (FAP substrate); format: biochemical
T1 construct: gift: Natalie Strynadka, University of Alberta
T1 sequence (P62593 24-286 limits assumed): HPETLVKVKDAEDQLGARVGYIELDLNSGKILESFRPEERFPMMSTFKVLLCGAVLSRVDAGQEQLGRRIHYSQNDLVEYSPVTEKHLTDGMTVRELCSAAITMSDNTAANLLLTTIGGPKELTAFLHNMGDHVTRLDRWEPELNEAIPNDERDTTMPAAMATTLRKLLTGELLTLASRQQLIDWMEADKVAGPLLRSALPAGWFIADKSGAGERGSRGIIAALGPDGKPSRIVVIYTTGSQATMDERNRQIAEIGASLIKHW

[3] = tested on: β-lactamase derepressed strain of Enterobacter cloacae (Ent-Der); assay: microbe, parasite or virus in culture; format: cell-based; conditions: for MIC of ceftazidime plus inhibitor: Table 3A, proportion 4/1, given as CAZ/inhibitor; for MIC of amoxicillin plus inhibitor: Table 4A, proportion 4/1; for MIC of amoxicillin plus inhibitor / MIC of inhibitor used alone without amoxicillin: Ent-Der.; for MIC of inhibitor used alone without amoxicillin: Table 4B, not tested above 128 μg/ml, “256” indicates no inhibition of cell growth; for MIC of ceftazidime plus inhibitor: values in µg/ml
Procedure: (§1) After incubation, the growth of the cells was visually inspected. The minimum inhibitory concentration (MIC) is the lowest concentration where there no cell growth was observed.
(§2) The following strains were used: Enterobacter cloacae cell line with derepressed β-lactamase production (Ent-Der), and Escherichia coli RYC1000 (araD139 D lacU169 rpsL D rib7 thiA gyrA recA56) cell lines, harboring the plasmid pBGS19 (with no β-lactamase), or the β-lactamase containing plasmids pBGAmpC (AmpC β-lactamase from E. coli; Eco-AmpC), or pBGAmpC-MHN (AmpC β-lactamase from Enterobacter cloacae; Eco-AmpCEnt). […] TEM-10 and TEM-24 differ from TEM-1 due to the following point substitutions: TEM-10 (R164S, E240K); TEM-24 (L102K, L162S, S235T, A237K). TEM-10 and TEM-24 also differ from TEM-1 in being extended spectrum enzymes (i.e., they react with a greater range of substrates than TEM-1). Also tested were clinical isolates of Pseudomonas aeruginosa. All bacterial strains and plasmids are available from Jesus Blazquez and Fernando Baquero, Servicio de Microbiologia, Hospital Ramon y Cajal, National Institute of Health, Madrid, Spain.
(§3) Several ratios, including 1:1, 2:1, 4:1, and 1:3, of β-lactam antibiotic (amoxicillin (AX) or ceftazidime (CAZ)) to boronic acid compound were used in the assays. Tazobactam (TAZO), a clinically used β-lactamase inibitor, was used as a positive control.

[4] = tested on: E. coli RYC1000 harboring plasmid pBGAmpC-MHN (AmpC β-lactamase of Enterobacter cloacae); assay: microbe, parasite or virus in culture; format: cell-based, Escherichia coli; conditions: for MIC of ceftazidime plus inhibitor: Table 3A, proportion 4/1, given as CAZ/inhibitor; for MIC of amoxicillin plus inhibitor: Table 4A, EC-AmpCEn, proportion 4/1; for MIC of inhibitor used alone without amoxicillin: Table 4B, ECAmpCEn, not tested above 128 μg/ml, “256” indicates no inhibition of cell growth; for MIC of ceftazidime plus inhibitor: values in µg/ml
Procedure: as §1, §2, §3

[5] = tested on: E. coli RYC1000 harboring pBGTEM-10 producing TEM-10 β-lactamase (EC-T10); assay: microbe, parasite or virus in culture; format: cell-based, Escherichia coli; conditions: for MIC of amoxicillin plus inhibitor: Table 4A, proportion 4/1; for MIC of amoxicillin plus inhibitor / MIC of inhibitor used alone without amoxicillin: EC-T10; for MIC of inhibitor used alone without amoxicillin: Table 4B, not tested above 128 μg/ml, “256” indicates no inhibition of cell growth
Procedure: as §1, §2, §3

[6] = tested on: E. coli RYC1000 harboring pBGTEM-1 producing TEM-1 β-lactamase (EC-T1); assay: microbe, parasite or virus in culture; format: cell-based, Escherichia coli; conditions: for MIC of amoxicillin plus inhibitor: Table 4A, proportion 4/1; for MIC of amoxicillin plus inhibitor / MIC of inhibitor used alone without amoxicillin: EC-T1; for MIC of inhibitor used alone without amoxicillin: Table 4B, not tested above 128 μg/ml, “256” indicates no inhibition of cell growth
Procedure: as §1, §2, §3

[7] = tested on: E. coli RYC1000 harboring a plasmid coding for a mutant of AmpC from Enterobacter (ECR-AmpCEnM); assay: microbe, parasite or virus in culture; format: cell-based, Escherichia coli; conditions: for MIC of amoxicillin plus inhibitor: Table 4A, ECR-AmpCEnM, proportion 4/1; for MIC of inhibitor used alone without amoxicillin: Table 4B, ECRAmpCEnM, not tested above 128 μg/ml, “256” indicates no inhibition of cell growth
Procedure: as §1, §2, §3

[8] = tested on: E. coli RYC1000 harboring pBGAmpC-E. coli producing AmpC (ECR-AmpCEc); assay: microbe, parasite or virus in culture; format: cell-based, Escherichia coli; conditions: for MIC of amoxicillin plus inhibitor: Table 4A, proportion 4/1; for MIC of amoxicillin plus inhibitor / MIC of inhibitor used alone without amoxicillin: ECR-AmpCEc; for MIC of inhibitor used alone without amoxicillin: Table 4B, not tested above 128 μg/ml, “256” indicates no inhibition of cell growth
Procedure: as §1, §2, §3

[9] = tested on: E. coli RYC1000 harboring plasmid pBGS19 (no β-lactamase); assay: microbe, parasite or virus in culture; format: cell-based, Escherichia coli; conditions: for MIC of ceftazidime plus inhibitor: Table 3A, proportion 4/1; for MIC of inhibitor used alone without amoxicillin: Table 4B, EC, not tested above 128 μg/ml, “256” indicates no inhibition of cell growth
Procedure: as §1, §2, §3

[10] = tested on: E. coli RYC1000 harboring plasmid pBGTEM-24 (TEM-24 β-lactamase); assay: microbe, parasite or virus in culture; format: cell-based, Escherichia coli; conditions: for MIC of ceftazidime plus inhibitor: Table 3A, proportion 4/1, given as CAZ/inhibitor; for MIC of ceftazidime plus inhibitor: values in µg/ml
Procedure: as §1, §2, §3

[11] = Tables 2A/2B, pH 7.0, 25° C., 100 μM cephalothin, read-out: Ki E. coli AmpC
[12] = Tables 2A/2B, pH 7.0, 25° C., 100 μM FAP, N.I. = no inhibition observed at an inhibitor concentration of 100 μM, read-out: Ki E. coli TEM-1
[13] = pH 7, read-out: Ki E. coli AmpC
[14] = Enterobacter cloacae, read-out: MIC of amoxicillin (AX)
[15] = Escherichia coli, read-out: MIC of amoxicillin (AX)
[16] = Table 5, as described in Example 2, read-out: Ki AmpC

AmpC β-lactamase from E. coli, sequence (P00811 20-377): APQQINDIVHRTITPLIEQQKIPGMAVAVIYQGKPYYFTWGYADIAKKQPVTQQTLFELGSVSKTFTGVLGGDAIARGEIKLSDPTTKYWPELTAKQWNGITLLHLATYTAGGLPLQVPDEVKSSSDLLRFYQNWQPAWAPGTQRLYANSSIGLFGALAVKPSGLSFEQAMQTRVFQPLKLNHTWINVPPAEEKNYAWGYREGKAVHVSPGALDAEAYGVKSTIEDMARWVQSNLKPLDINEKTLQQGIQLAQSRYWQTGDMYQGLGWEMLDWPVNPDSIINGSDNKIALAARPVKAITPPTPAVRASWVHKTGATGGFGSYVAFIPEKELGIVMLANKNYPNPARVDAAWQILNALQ

For `OB(O)c1ccc2ccccc2c1` [2-naphthylboronic acid], the Ki ([1]; Example 1, read-out: Ki for AmpC) was 8.5 ± 1.8 µM.

With `O=Cc1ccsc1B(O)O` [3FTH2B, 3-formylthiophene-2-boronic acid] the “Ki E. coli TEM-1” value ([2]; Tables 2A/2B, pH 7.0, 25° C., 100 μM FAP, N.I. = no inhibition observed at an inhibitor concentration of 100 μM) was “N.I” and the Ki [1, 11] was 3.5 µM.

`OB(O)c1ccsc1` [TH3B, thiopene-3-boronic acid] was tested, and the Ki [2, 12] was 100 µM, the Ki [1, 13] was 17 µM and the Ki ([1]; read-out: Ki for AmpC) was 22.1 ± 3.5 µM.

With `OB(O)c1ccc(B(O)O)cc1` [B14DA] the Ki [2, 12] was 40 µM and the Ki [1, 13] was 6.9 µM.

`Cc1ccc(B(O)O)cc1` [4MEPB, 4-methylphenylboronate, reference compound] was tested, and the Ki [2, 12] was over 100 µM and the Ki [1, 13] was 5.2 µM.

`CC1(C)S[C@@H]2[C@H](NC(=O)[C@H](N)c3ccc(O)cc3)C(=O)N2[C@H]1C(=O)O` [AX, amoxicillin, reference compound] gave an MIC [3, 14] of over 2050 µg/mL, an MIC [4, 14] of over 2050 µg/mL and an MIC [5, 15] of over 2050 µg/mL. The MIC [6, 15] was over 2050 µg/mL, the MIC ([7]; Enterobacter, read-out: MIC of amoxicillin (AX)) was over 2050 µg/mL and the MIC [8, 15] was over 2050 µg/mL.

In the case of `OB(O)c1csc2ccccc12`, the Ki ([1]; read-out: Ki AmpC) is reported as 0.78 ± 0.08 µM.

`Cc1csc(B(O)O)c1` showed a Ki [1, 16] of 0.5 ± 0.05 µM.

With `OB(O)c1cccc(C(F)(F)F)c1` [3TFMB] the Ki [2, 12] was 85 µM, the “Ki values (AmpC), range in words” value [1] was “one to two” and the Ki [1, 13] was 1.6 µM.

Work on `CCCCB(O)O` [BUTB, Butylboronic acid] yielded a Ki [2] of over 100 µM and a Ki [1, 11] of over 500 µM.

`O=C(O)/C=C/c1ccc(B(O)O)cc1` gave a Ki [1, 16] of 4.2 ± 1.1 µM.

In the case of `C[C@]1(Cn2ccnn2)[C@H](C(=O)O)N2C(=O)C[C@H]2S1(=O)=O` [TAZO, Tazobactam, reference compound], the “MIC of ceftazidime plus inhibitor” value ([3]; Ent. Der.) is reported as 32/8, the “MIC of amoxicillin plus inhibitor” value [3] is reported as 128 µg/mL and the “MIC of inhibitor used alone without amoxicillin” value [3] is reported as 256 µg/mL. For the same compound, the “MIC of ceftazidime plus inhibitor” value ([9]; pBGS19) was under 0.25 µg/mL, the “MIC of inhibitor used alone without amoxicillin” value [9] was 32 µg/mL and the “MIC of ceftazidime plus inhibitor” value ([4]; AmpC-MHN) was 4/1. The “MIC of amoxicillin plus inhibitor” value [4] was 16 µg/mL, the “MIC of inhibitor used alone without amoxicillin” value [4] was 64 µg/mL and the “MIC of amoxicillin plus inhibitor” value [5] was 4 µg/mL. The “MIC of inhibitor used alone without amoxicillin” value [5] was 64 µg/mL, the “MIC of ceftazidime plus inhibitor” value [10] was 8/2 and the “MIC of amoxicillin plus inhibitor” value [6] was 8 µg/mL. For the same compound, the “MIC of inhibitor used alone without amoxicillin” value [6] was 32 µg/mL, the “MIC of amoxicillin plus inhibitor” value [7] was 16 µg/mL and the “MIC of inhibitor used alone without amoxicillin” value [7] was 64 µg/mL. The “MIC of amoxicillin plus inhibitor” value [8] was 32 µg/mL and the “MIC of inhibitor used alone without amoxicillin” value [8] was 64 µg/mL.

`OB(O)c1ccccc1` [2FDB, phenylboronic acid, reference compound] was tested, and the Ki [2] was over 100 µM and the Ki [1, 11] was 8 µM.

In the case of `OB(O)c1cc2ccccc2o1` [BZBF2B, benzo[b]furan-2-boronic acid], the Ki [2] is reported as 8 µM, the “activity relative to furan-2-boronic acid parent (AmpC)” value [1] is reported as “about 1000 fold” and the Ki ([1]; Ki E. coli AmpC) is reported as 0.07 µM.

In the case of `OB(O)c1cccs1` [TH2B, thiophene-2-boronic acid], the Ki [2] is reported as 31 µM, the “MIC of ceftazidime plus inhibitor” value ([3]; Ent. Der.) is reported as 32/8 and the “MIC of inhibitor used alone without ceftazidime” value ([3]; Table 3B, Ent. Der.) is reported as 256 µg/mL. For the same compound, the “MIC of amoxicillin plus inhibitor” value [3] was 64 µg/mL, the “MIC of inhibitor used alone without amoxicillin” value [3] was 128 µg/mL and the “MIC of ceftazidime plus inhibitor” value ([9]; pBGS19) was under 0.25 µg/mL. For the same compound, the “MIC of inhibitor used alone without ceftazidime” value ([9]; Table 3B, pBGS19) was 128 µg/mL, the “MIC of inhibitor used alone without amoxicillin” value [9] was 64 µg/mL and the “MIC of ceftazidime plus inhibitor” value ([4]; AmpC-MHN) was 8/2. For the same compound, the “MIC of inhibitor used alone without ceftazidime” value ([4]; Table 3B, AmpC-MHN) was 128 µg/mL, the “MIC of amoxicillin plus inhibitor” value [4] was 32 µg/mL and the “MIC of inhibitor used alone without amoxicillin” value [4] was 128 µg/mL. The “MIC of amoxicillin plus inhibitor” value [5] was 256 µg/mL, the “MIC of inhibitor used alone without amoxicillin” value [5] was 128 µg/mL and the “MIC of ceftazidime plus inhibitor” value [10] was 128/32. For the same compound, the “MIC of inhibitor used alone without ceftazidime” value ([10]; Table 3B) was 128 µg/mL, the “MIC of amoxicillin plus inhibitor” value [6] was 128 µg/mL and the “MIC of inhibitor used alone without amoxicillin” value [6] was 64 µg/mL. The “MIC of amoxicillin plus inhibitor” value [7] was 32 µg/mL, the “MIC of inhibitor used alone without amoxicillin” value [7] was 64 µg/mL and the “MIC of amoxicillin plus inhibitor” value [8] was 64 µg/mL. The “MIC of inhibitor used alone without amoxicillin” value [8] was 128 µg/mL.

`O=C1OC(=O)c2ccccc2/C1=N/Nc1cccc(B(O)O)c1` was tested, and the Ki [1, 16] was 0.075 µM.
